Entries after “also recorded” stand apart in the source; their conditions may differ.
Tests used:
IMR-32 cells = assay: Cell viability assay (CellTiter96 AQueous One, OD490); assay type: cell-based, human; conditions: 150 ppb, 72 hours
Experimental: Cell viability in cultured IMR-32 cells was determined using Promega's CellTiter96® AQueous One Solution Cell Proliferation Assay kits, according to the manufacturer's protocol and instructions. In brief, IMR-32 cells were seeded on 96-well clear plates (VWR) at a density of 2×10^4 cells/well, and treated with control or compounds of the present invention for 24 hours, 28 hours, and/or 72 hours.
The cultured cells were then incubated with AQueous One solution (100 ul/per well) at 37° C. for 1 hour. The absorbance at OD490 nm in each sample was determined by a Bio-Tek microplate reader. Cell viability in cultured cells were determined by the subtraction of OD490 nm in cultured cells with the OD490 nm in plain culture media without seeding of cells (control). Eight samples per each treatment were examined for the above analysis.
Cell viability assays were performed on cells after treatment with various compounds (150 ppb selenium compounds and equal dilution of their sulfur analog) for 24 hours, and 72 hours.

APOE = assay: QRT-PCR of APOE mRNA in IMR-32 cells (normal, control KD, FOXO4 KD); assay type: cell-based, human; conditions: 24 hours
Experimental: IMR-32 cells were cultured on 12-well plates for 24 hours and then incubated with FOXO4 siRNA lentiviruses (SC-29650V, Santa Cruz) or control siRNA lentiviruses (sc-108080, Santa Cruz) in the presence of Polybrene (5 μg/ml, Santa Cruz) for 24 hours according to the manufacturer's protocol. These lentiviral siRNA-transfected cells were amplified in normal media for 3 days and then incubated with puromycin for 9-14 days to obtain the stable Control KD (stably transfected with the control siRNAs) and FOXO4KD (stably transfected with Foxo4 siRNAs) cells. These control and Foxo4 KD cells were subjected to cell survival, mitochondrial potential and RNA analysis.
Human IMR-32 cells were seeded on gelatinized 6-well (6.5×10^5 cells/well) or 24-well (1.3×10^5 cells/well) plates. Cells were treated with control (0 ppb) or various compounds for 6 hours or 24 hours. Total RNA from these cells was isolated using Trizol (Invitrogen) according to the manufacturer's protocol, and then incubated with DNase I to remove any potential contaminated genomic DNA. Then RNA samples were subjected to real-time PCR analysis using the Applied-Bioscience's RT kit and predesigned Taqman probes (Invitrogen), as described previously (Lan et al EMBO J 2003). The mRNA levels of UCP1, UCP2, UCP3, SLC25A27 (UCP4), SLC25A14 (UCP5), PSEN1, Nicastrin, GSK3B, MAPK11-14, PPARG, APOE, RCAN1, RCAN1.1, G6PC, INSR, IGF1R and FOXO4 were measured. Three to six samples were analyzed in each treatment group. Data were normalized by Actin B (ACTB) or Glyceraldehyde Phosphate Dehydrogenase (GAPDH) mRNA levels in each sample and are presented as mean±SEM of 3-6 samples.
To explore this possibility, IMR-32 cells were treated with 150 ppb Compound C, Compound D or Compound E (150 ppb) for 6 hours and 24 hours, and then subjected to Western blot and QRT-PCR analyses. […] Therefore, Compound C and Compound D are downregulators of PPARG in IMR-32 cells at both mRNA and protein levels. […]

phosphorylated-p38 = assay: Western blot of phosphorylated-p38 in APP/PS1 mouse brains; assay type: in vivo; conditions: APP/PS1 mice, Compound C diet vs control diet
Experimental: Male APPΔNLh/ΔNLh×PS1P246 L/246 L knock-in model mice of Alzheimer's disease (abbreviated APP/PS1) were genotyped using standard primers for human APP (Amyloid Precursor Protein) and human PS1 (PSEN1). These APP/PS1 mice starting at the age of 6 months, were fed either a control diet containing normal levels of selenium (0.3 ppm from plant and inorganic selenium salt sources) or an experimental diet containing Compound C (the control diet to which was added 1 ppm Se from Compound C) for 6 months. […]
Frozen hemispheres of control- and Compound C-treated APP/PS1 mice were weighed and homogenized in PBS buffer, and then subsequently extracted with RIPA buffer (Sigma) containing complete proteinase and phosphatase inhibitors (Fisher Scientific). Protein levels in the samples were determined by micro-BCA protein analysis according to the manufacturer's protocol. […] Positive signals on the membrane blots were detected using Amersham's enhanced chemiluminescence Western Blotting Prime Detection reagents (GE healthcare Lifescience, Pittsburgh, Pa.). Images of these luminescence signals on the membrane blots were captured using the LI-COR Odyssey Fc Image system (Lincoln, Nebr.). Protein band densities in Western blots were determined using NIH Image J software, and then normalized by Actb levels in each samples to obtain the protein levels.

C[Se]C[C@H]1O[C@@H](n2cnc3c(N)ncnc32)C(O)C1O (stereo in doubt) [Compound C, 5′-deoxy-5′-methylselenoadenosine]
cell viability (OD490) (IMR-32 cells): small, but significant increase | APOE mRNA expression (APOE; FOXO4KD cells, 75 ppb and 150 ppb): not significantly altered | APOE mRNA levels (APOE; IMR-32 cells, 150 ppb): significantly decreased | APOE mRNA levels (APOE; control normal cells, 75 ppb and 150 ppb): attenuated | phosphorylated-p38 protein levels in the brains (phosphorylated-p38): reduced; also recorded: decreased

Source: patent publication US10201558B2, “Compositions of selenoorganic compounds and methods of use thereof” (Alltech, Inc., priority 2014, dated 2019)
